Values quoted from earlier work as cited in PMC12181400, “Leveraging viral genome sequences and machine learning models for identification of potentially selective antiviral agents” (Communications Chemistry, 2025).
Counter-ions that a name gives are not always drawn. Like-named read-outs stand apart in the source and are kept apart here.

Assays:
Conditions in all cases: cited from earlier work
[1] = tested on: cell viability (tox21-car-antagonist-p1)
[2] = tested on: cell viability (tox21-are-bla-p1)
[3] = tested on: cell viability (tox21-ap1-agonist-p1)
[4] = tested on: cell viability (tox21-ar-mda-kb2-luc-agonist-p3)
[5] = tested on: cell viability (tox21-ar-mda-kb2-luc-antagonist-p2)
[6] = tested on: cell viability (tox21-car-agonist-p1)
[7] = curve rank −9 to 9, 0 = inactive, ref NCATS Tox21 public data browser

CN(C(=O)c1c(O)c2ccccc2n(C)c1=O)c1ccccc1 [Roquinimex]
0: tox21-car-antagonist-p1-viability (curve rank) [1] | tox21-are-bla-p1-viability (curve rank) [2] | tox21-ap1-agonist-p1-viability (curve rank) [3] | tox21-ar-mda-kb2-luc-agonist-p3-viability (curve rank) [4] | tox21-ar-mda-kb2-luc-antagonist-p2-viability (curve rank) [5] | tox21-car-agonist-p1-viability (curve rank) [6]

CN1C(=O)CC[C@H]1c1cccnc1 [Cotinine]
0: tox21-car-antagonist-p1-viability (curve rank) [1] | tox21-are-bla-p1-viability (curve rank) [2] | tox21-ap1-agonist-p1-viability (curve rank) [3] | tox21-ar-mda-kb2-luc-agonist-p3-viability (curve rank) [4] | tox21-ar-mda-kb2-luc-antagonist-p2-viability (curve rank) [5] | tox21-car-agonist-p1-viability (curve rank) [6]

CN1C(=O)CC(c2ccccc2)C1=O (stereo not drawn) [Phensuximide]
0: tox21-car-antagonist-p1-viability (curve rank) [1] | tox21-are-bla-p1-viability (curve rank) [2] | tox21-ap1-agonist-p1-viability (curve rank) [3] | tox21-ar-mda-kb2-luc-agonist-p3-viability (curve rank) [4] | tox21-ar-mda-kb2-luc-antagonist-p2-viability (curve rank) [5] | tox21-car-agonist-p1-viability (curve rank) [6]

O=C1NCC2(CCN(CCc3ccccc3)CC2)O1 [Fenspiride hydrochloride]
0: tox21-car-antagonist-p1-viability (curve rank) [1, 7] | tox21-are-bla-p1-viability (curve rank) [2, 7] | tox21-ap1-agonist-p1-viability (curve rank) [3, 7] | tox21-ar-mda-kb2-luc-agonist-p3-viability (curve rank) [4, 7] | tox21-ar-mda-kb2-luc-antagonist-p2-viability (curve rank) [5, 7] | tox21-car-agonist-p1-viability (curve rank) [6, 7]

NC(=O)c1ccccc1O [Salicylamide]
0: tox21-car-antagonist-p1-viability (curve rank) [1] | tox21-are-bla-p1-viability (curve rank) [2] | tox21-ap1-agonist-p1-viability (curve rank) [3] | tox21-ar-mda-kb2-luc-agonist-p3-viability (curve rank) [4] | tox21-ar-mda-kb2-luc-antagonist-p2-viability (curve rank) [5] | tox21-car-agonist-p1-viability (curve rank) [6]

CCOC(=O)c1ncn2c1CN(C)C(=O)c1cc(F)ccc1-2 [Flumazenil]
0: tox21-car-antagonist-p1-viability (curve rank) [1] | tox21-are-bla-p1-viability (curve rank) [2] | tox21-ap1-agonist-p1-viability (curve rank) [3] | tox21-ar-mda-kb2-luc-agonist-p3-viability (curve rank) [4] | tox21-ar-mda-kb2-luc-antagonist-p2-viability (curve rank) [5] | tox21-car-agonist-p1-viability (curve rank) [6]

CN(C)CCOC(=O)C(c1ccccc1)C1(O)CCCC1 (stereo not drawn) [Cyclopentolate hydrochloride]
0: tox21-car-antagonist-p1-viability (curve rank) [1, 7] | tox21-are-bla-p1-viability (curve rank) [2, 7] | tox21-ap1-agonist-p1-viability (curve rank) [3, 7] | tox21-ar-mda-kb2-luc-agonist-p3-viability (curve rank) [4, 7] | tox21-ar-mda-kb2-luc-antagonist-p2-viability (curve rank) [5, 7] | tox21-car-agonist-p1-viability (curve rank) [6, 7]

[H]/N=C(/N)NS(=O)(=O)c1ccc(N)cc1 [Sulfaguanidine]
0: tox21-car-antagonist-p1-viability (curve rank) [1] | tox21-are-bla-p1-viability (curve rank) [2] | tox21-ap1-agonist-p1-viability (curve rank) [3] | tox21-ar-mda-kb2-luc-agonist-p3-viability (curve rank) [4] | tox21-ar-mda-kb2-luc-antagonist-p2-viability (curve rank) [5] | tox21-car-agonist-p1-viability (curve rank) [6]

NC(=O)NC(=O)Cc1ccccc1 [Phenacemide]
0: tox21-car-antagonist-p1-viability (curve rank) [1, 7] | tox21-are-bla-p1-viability (curve rank) [2, 7] | tox21-ap1-agonist-p1-viability (curve rank) [3, 7] | tox21-ar-mda-kb2-luc-agonist-p3-viability (curve rank) [4, 7] | tox21-ar-mda-kb2-luc-antagonist-p2-viability (curve rank) [5, 7] | tox21-car-agonist-p1-viability (curve rank) [6, 7]

NP(N)(=O)NC(=O)c1ccc(F)cc1 [Flurofamide]
0: tox21-car-antagonist-p1-viability (curve rank) [1] | tox21-are-bla-p1-viability (curve rank) [2] | tox21-ap1-agonist-p1-viability (curve rank) [3] | tox21-ar-mda-kb2-luc-agonist-p3-viability (curve rank) [4] | tox21-ar-mda-kb2-luc-antagonist-p2-viability (curve rank) [5] | tox21-car-agonist-p1-viability (curve rank) [6]
